A short description of the data set: Human HepG2 cell viability assay in 384 well format. It is filed as toxicity, cell-based. Set-up: dose 125 nL, time 70.5 hour; cytotoxicity at 70.5 h: concentration not given beside the values. As to conditions: HepG2 cells, read-out: Inhibition.
In the case of `COc1ccc(C(=O)NCc2ccc(C(=O)O)o2)cc1`, the cytotoxicity at 70.5 h was found to be 27.3%.
The figure for `CC(=O)c1c(N(C)C)ccnc1C(F)(F)F` is -6.51%; for `CCC1=N[C@@]2(CC[C@@H]3CN(S(=O)(=O)CC)C[C@@H]32)C(=O)N1CC` it is -2.37%.
The figure for `CCC1=N[C@@]2(CC[C@@H]3CN(S(C)(=O)=O)C[C@@H]32)C(=O)N1CC(C)C` is -1.52%; for `CCOC(=O)CN1CCC2(CC1)CC(NC(=O)c1ccccn1)CO2` (centres undefined) it is -1.03%.
Regarding `Cc1ccsc1C(=O)N1CC(C(=O)N2CCCC2)C2(CCOCC2)C1` (centres undefined), the cytotoxicity at 70.5 h came to 0.96%.
Consider `CNC(=O)[C@@]12CCCN(c3ncccn3)[C@@H]1CN(c1ncc(C)cn1)C2`, for which the cytotoxicity at 70.5 h is -4.37%.
For `CN(C)Cc1nnc2n1CCCN(C(=O)c1c[nH]cn1)C2` the value was -0.569%; for `CNC(=O)[C@@]12CCCN(c3ncccn3)[C@@H]1CN(c1ncc(F)cn1)C2`, -0.144%; for `O=C(COc1ccccc1)N1CCC[C@]2(C[C@@H](OCC3CC3)CO2)C1`, 0.205%.
For `CS(=O)(=O)CC(=O)NCC1OCCc2cn(CC3CC3)nc21` (centres undefined) the value was -1.93%; for `Cc1csc([C@H]2C[C@@H]3CCN(C(=O)c4cnccn4)C[C@H]3O2)n1`, -3.11%.
For `CO[C@@H]1CO[C@@]2(CCN(C(=O)COc3ccccc3C)C2)C1` the value was -2.61%; for `CCOCC1CN(C(=O)COc2ccccc2)Cc2cn(C)nc21` (centres undefined), -4%.
`Cc1csc([C@@H]2C[C@@H]3CCN(C(=O)c4cccn4C)C[C@H]3O2)n1`: the cytotoxicity at 70.5 h came to 9.1%.
For `COCC1CN(Cc2cccnc2OC)Cc2cnn(C)c21` (centres undefined) the value was 6.07%.
For `O=C1NCC[C@]12CN(Cc1ccco1)C[C@H]2c1ccccc1` the value was 1.63%.
`CC(C)NC(=O)c1cc2c(nc1N(C)C)CCN(S(=O)(=O)C1CC1)CC2`: the cytotoxicity at 70.5 h amounted to 7.69%.
For `O=C(CCn1cc(Cl)cn1)Nc1nncs1` the value was 15.8%; for `Cc1c(Cl)c(C(=O)NN2CCOCC2)nn1C`, -8.4%; for `Cc1cc(C(F)(F)F)nn1C(C)C(=O)NN1CCN(C)CC1` (centres undefined), 18.4%.
The figure for `Cc1nn(CC(=O)N2CCN(Cc3cnn(C)c3C)CC2)cc1Cl` is -9.22%; for `Cc1cc(C(=O)N(C)Cc2cnn(C)c2C)n(C)n1` it is 14%.
For `Cc1c(Cl)c(C(F)(F)F)nn1C(C)C(=O)NC1CCN(C)CC1` (centres undefined) the value was 7.5%; for `Cn1nccc1CNC(=O)C1CCCCC1`, -2.81%; for `COC(=O)C1=C(C)N=C2SCC(=O)N2C1c1cnn(C)c1C` (centres undefined), -1.28%.
`NC(=O)c1ccn(COc2ccccc2Cl)n1`: the cytotoxicity at 70.5 h was -9.79%.
`Cc1cc(C(F)(F)F)nn1CC(C)C(=O)NC(C)C` (centres undefined): the cytotoxicity at 70.5 h is 19.9%.
As for `O=C(NC1CC1)c1ccn(COc2c(Cl)cccc2Cl)n1`, the cytotoxicity at 70.5 h was -14.6%.
For `CC(Cn1cc(Br)cn1)C(=O)Nc1ccc(C(N)=O)cc1` (centres undefined) the value was 7.39%; for `CCOC(=O)N1CCN(C(=O)c2cc(-c3ccc(C)cc3)on2)CC1`, 5.24%; for `Cn1cc(S(=O)(=O)NCc2ccc(F)cc2)cn1`, -2.02%.
For `CCS(=O)(=O)Nc1cnn(Cc2cccc(C)c2)c1` the value was -3.36%.
The figure for `CCn1ncc(S(=O)(=O)NC(C)c2cc(OC)ccc2OC)c1C` (centres undefined) is 20.2%; for `Cc1nn(CCCNC(=O)C2CCN(S(C)(=O)=O)CC2)cc1Cl` it is 36.7%; for `CCn1cc(NS(=O)(=O)c2ccc(F)cc2)c(C(=O)NCC(C)C)n1` it is -1.23%.
For the compound `O=C(c1ccc(COc2ccccc2Cl)o1)N1N=CCC1(O)C(F)(F)F` (centres undefined), the cytotoxicity at 70.5 h was -4.75%.
For `O=C1CCC(=O)c2oc3ccc(Br)cc3c2N1` the value was -12.5%; for `O=C1CCC(=O)c2oc3ccc(Cl)cc3c2N1`, -14%.
For `CC1=C(C(N)=O)C(c2cn(C)nc2C)N2C(=O)CSC2=N1` (centres undefined) the value was -9.38%.
For `O=C(CCS(=O)(=O)c1ccccc1)NCCCn1cccn1` the value was -16.1%; for `CCn1cc(CN2CCN(C(=O)c3cc(C)c(C)s3)CC2)c(C)n1`, -10.4%.
As for `CCn1cc(CN2CCN(C(=O)c3cc(Br)cs3)CC2)c(C)n1`, the cytotoxicity at 70.5 h came to 22.9%.
For `Cc1nn(C)cc1-c1cc(-c2cn(C)nc2C)n(CC(=O)NC2CC2)n1` the value was -7.88%; for `O=C(c1cnn2c(-c3ccco3)ccnc12)N1CCCCCC1`, -8.53%; for `CC1CCN(C(=O)c2cnn3c(-c4ccco4)ccnc23)CC1`, -8.7%.
As to `Cc1nn(C)cc1-c1cc(C(F)(F)F)nc(NC2CCCCC2)n1`, the cytotoxicity at 70.5 h was -9.44%.
On to `Cc1nn(C)cc1-c1cc(C(F)(F)F)nc(NC2CCN(C)CC2)n1`, for which the cytotoxicity at 70.5 h was -4.19%.
The figure for `Cc1nn(C)cc1S(=O)(=O)NCC(C)Cn1cc(Cl)cn1` (centres undefined) is 3.54%; for `Cc1noc(C)c1S(=O)(=O)N(C)Cc1nn(C)c(Cl)c1Cl` it is 24.3%; for `Cc1c(S(=O)(=O)N(CCc2ccccc2)Cc2ccn(C)n2)cnn1C` it is -8.56%.
The figure for `Cc1nn(C)c(C)c1S(=O)(=O)N(C)Cc1nn(C)c(Cl)c1Cl` is 18.2%; for `O=C(Cn1cc(C(=O)O)cn1)Nc1c(Cl)cccc1Cl` it is -5.99%.
For `CCn1ccc(-c2cc(C(=O)O)n3ncc(Br)c3n2)n1` the value was -11.6%.
Turning to `CCn1ncc2c(C(F)(F)F)cc(-c3ccn(C)n3)nc21`, the cytotoxicity at 70.5 h was -8.47%.
For `CCCn1ncc2c(C(=O)NC(C)Cn3cccn3)cc(C3CC3)nc21` (centres undefined) the value was -13.1%.
For `COC(=O)CNC(=O)c1cc(-c2ccccc2)nc2ncnn12` the value was -0.256%; for `CCOc1ccc2oc(-c3cn(C)nc3C)c(O)c(=O)c2c1`, 32.5%.
In the case of `COc1ccc2oc(-c3cn(C)nc3C)c(O)c(=O)c2c1`, the cytotoxicity at 70.5 h is -1.34%.
For `CC(=O)c1c(C)nn(S(=O)(=O)c2ccc(F)cc2)c1C`, the cytotoxicity at 70.5 h was found to be 1.95%.
In the case of `c1cncc(CNc2ccccc2-c2nn[nH]n2)c1`, the cytotoxicity at 70.5 h was -5.95%.
The figure for `COc1ccc(-c2cc(C3(O)CCOC(C)(C)C3)on2)cc1` (centres undefined) is -11.5%; for `O=C1N[C@H]2OCCC[C@H]2[C@H](c2ccccc2)N1` it is -12.3%; for `c1ccc2c3c([nH]c2c1)C(c1nn[nH]n1)CCC3` (centres undefined) it is -10.7%.
For `Brc1ccc2[nH]c3c(c2c1)CCCC3c1nn[nH]n1` (centres undefined) the value was -14.8%; for `COc1c(Br)c(CC2CC(CO)=NO2)c(OC)c2c1OCO2` (centres undefined), -9.88%.
For `COc1cc(CC2CC(C(N)=O)=NO2)cc2c1OCO2` (centres undefined) the value was -7.88%; for `Cc1cc(N)n(-c2ccc3nnc(C)n3n2)n1`, 6.51%; for `COc1ccc(C2=NOC(CC#N)C2)cc1` (centres undefined), -1.51%.
`COc1ccc(C2=NOC(CO)C2)cc1` (centres undefined): the cytotoxicity at 70.5 h was -14.5%.
For `CNc1[nH]nc(N)c1C(=O)Nc1ccccc1` the value was 2.68%; for `Cn1ncc2c1NC(=O)CC2c1ccc(F)cc1` (centres undefined), 1.96%; for `COc1ccccc1CNC(=O)c1[nH]ncc1Cl`, 6.24%.
For `CC(=O)Oc1ccnc(C(F)(F)F)c1C(C)=O` the value was -3.5%; for `COc1cc(-c2n[nH]c(CC#N)n2)cc(OC)c1OC`, 51.6%.
`COC(=O)CCn1ccc(=O)c2ccc(OC)cc21`: the cytotoxicity at 70.5 h came out at 19.7%.
The figure for `O=C(NCCCO)c1nnsc1-c1ccc(Cl)cc1` is -13.1%; for `Cc1ncc2c(n1)CCCC2NC(=O)c1ccccc1C(=O)O` (centres undefined) it is -13.5%.
As to `O=C(c1cc(-c2cccs2)cs1)N1CCSCC1`, the cytotoxicity at 70.5 h was -5.68%.
For `O=C(NCC1CCCO1)c1cc(Sc2ncccn2)ccn1` (centres undefined) the value was 24.8%; for `Cc1cccc(C(=O)Nc2c(C(=O)N(C)C)nn(C)c2C)c1`, -3.25%; for `Cc1ccc(C(=O)Nc2c(C(=O)N(C)C)nn(C)c2C)cc1C`, -4.41%.
For `Cc1nn(C)cc1C(=O)NCc1csc(C2CC2)n1` the value was 18.9%; for `CCn1cc(CCC(=O)NCc2csc(C3CC3)n2)c(C)n1`, -11.7%; for `CCn1cc(C(=O)NCc2csc(C3CC3)n2)c(C)n1`, -3.62%.
The figure for `Cc1ccc2c(cnn2CCC(=O)NCc2csc(C3CC3)n2)c1` is 22.8%; for `Cn1ccnc1CN1CCC2(CC1)CN(Cc1ccccc1)C(=O)CO2` it is -5.92%; for `COCCN1C(=O)CCC12CCN(c1ncc(F)cn1)CC2` it is -2.74%.
On to `CCCS(=O)(=O)N1C[C@@H](Oc2ccccn2)[C@H]2OCCC[C@H]21`, for which the cytotoxicity at 70.5 h is -1.57%.
For the compound `O=C(NC1COC2(CCN(Cc3cccs3)CC2)C1)c1ccccn1` (centres undefined), the cytotoxicity at 70.5 h is -2.35%.
For the compound `O=C1CCC2(CCN(c3ncc(F)cn3)CC2)N1Cc1ccncc1`, the cytotoxicity at 70.5 h came out at 7.51%.
Turning to `COCC1CN(C(=O)c2cccn2C)Cc2c1cnn2CC1CC1` (centres undefined), the cytotoxicity at 70.5 h was -1.46%.
On to `COCC1CC2(CCN(C(=O)c3cncc(C)c3)CC2)CO1` (centres undefined), for which the cytotoxicity at 70.5 h is 9.94%.
The figure for `O=C(c1ccccn1)N1CCCC2(CCN(c3ccsc3)C2=O)C1` (centres undefined) is 12.8%.
The figure for `Cc1ccc(C(=O)N2CCC3(CCN(c4ccsc4)C3=O)C2)cn1` (centres undefined) is 6.79%; for `CN(C)S(=O)(=O)N1CCC2(CC1)CC(Oc1ccccn1)CO2` (centres undefined) it is 0.296%.
For `COCC1CC2(CCN(C(=O)c3cnc4ccccc4c3)CC2)CO1` (centres undefined) the value was -0.655%; for `CN1CC(=O)N(c2cccc(F)c2)CC12CCN(Cc1ccsc1)C2` (centres undefined), -5.22%; for `O=C(c1ccncc1)N1CCCC2(CCN(c3cccnc3)C2=O)C1` (centres undefined), 0.0433%.
